Read-outs that look alike come from different tables or passages of the source. Marks after values point to notes of the source that are not given here.
System: DispersinB
Format: biochemical, Aggregatibacter actinomycetemcomitans
Details: polyol % as in label
Method: Samples from each formula was incubated at 3 different temperatures (42° C., 52° C. and 62° C.) for 3 hours. Following a 3 hour incubation, the samples were brought to room temperature for enzymatic activity assay.
Two-tailed paired T-test was performed by to compare each polyol containing treatment with the treatment devoid of polyol. Treatment with probability values (p) less than 5% (0.05) was considered significant.

OC[C@@H](O)[C@@H](O)CO [Erythritol, (2R,3S)-Butane-1,2,3,4-tetrol]
% enzymatic activity of DispersinB (Mean) (4° C., freshly made control without polyol = 100%, listed as 1% Erythritol): 105% | % enzymatic activity of DispersinB (Mean) (4° C., freshly made control without polyol = 100%, listed as 2.5% Erythritol): 97% | % enzymatic activity of DispersinB (Mean) (4° C., freshly made control without polyol = 100%, listed as 5% Erythritol): 101% | % enzymatic activity of DispersinB (Mean) (4° C., freshly made control without polyol = 100%, listed as 10% Erythritol): 97% | % enzymatic activity of DispersinB (Mean) (4° C., freshly made control without polyol = 100%, listed as 15% Erythritol): 96% | % enzymatic activity of DispersinB (Mean) (4° C., freshly made control without polyol = 100%, listed as 20% Erythritol): 104% | % enzymatic activity of DispersinB (Mean) (4° C., freshly made control without polyol = 100%, listed as 25% Erythritol): 109% | % enzymatic activity of DispersinB (Mean) (42° C. for 3 hours, control without polyol = 100%, listed as 1% Erythritol): 109* % | % enzymatic activity of DispersinB (Mean) (42° C. for 3 hours, control without polyol = 100%, listed as 2.5% Erythritol): 107* % | % enzymatic activity of DispersinB (Mean) (42° C. for 3 hours, control without polyol = 100%, listed as 5% Erythritol): 106* % | % enzymatic activity of DispersinB (Mean) (42° C. for 3 hours, control without polyol = 100%, listed as 10% Erythritol): 107* % | % enzymatic activity of DispersinB (Mean) (42° C. for 3 hours, control without polyol = 100%, listed as 15% Erythritol): 119* % | % enzymatic activity of DispersinB (Mean) (42° C. for 3 hours, control without polyol = 100%, listed as 20% Erythritol): 113* % | % enzymatic activity of DispersinB (Mean) (42° C. for 3 hours, control without polyol = 100%, listed as 25% Erythritol): 117* % | % enzymatic activity of DispersinB (Mean) (52° C. for 3 hours, control without polyol = 100%, listed as 1% Erythritol): 6* % | % enzymatic activity of DispersinB (Mean) (52° C. for 3 hours, control without polyol = 100%, listed as 2.5% Erythritol): 20* % | % enzymatic activity of DispersinB (Mean) (52° C. for 3 hours, control without polyol = 100%, listed as 5% Erythritol): 33* % | % enzymatic activity of DispersinB (Mean) (52° C. for 3 hours, control without polyol = 100%, listed as 10% Erythritol): 58* % | % enzymatic activity of DispersinB (Mean) (52° C. for 3 hours, control without polyol = 100%, listed as 15% Erythritol): 78* % | % enzymatic activity of DispersinB (Mean) (52° C. for 3 hours, control without polyol = 100%, listed as 20% Erythritol): 95* % | % enzymatic activity of DispersinB (Mean) (52° C. for 3 hours, control without polyol = 100%, listed as 25% Erythritol): 121* % | % enzymatic activity of DispersinB (Mean) (62° C. for 3 hours, control without polyol = 100%, listed as 1% Erythritol): 0% | % enzymatic activity of DispersinB (Mean) (62° C. for 3 hours, control without polyol = 100%, listed as 2.5% Erythritol): 0% | % enzymatic activity of DispersinB (Mean) (62° C. for 3 hours, control without polyol = 100%, listed as 5% Erythritol): 0% | % enzymatic activity of DispersinB (Mean) (62° C. for 3 hours, control without polyol = 100%, listed as 10% Erythritol): 0% | % enzymatic activity of DispersinB (Mean) (62° C. for 3 hours, control without polyol = 100%, listed as 15% Erythritol): 0% | % enzymatic activity of DispersinB (Mean) (62° C. for 3 hours, control without polyol = 100%, listed as 20% Erythritol): 0% | % enzymatic activity of DispersinB (Mean) (62° C. for 3 hours, control without polyol = 100%, listed as 25% Erythritol): 20* %
